Source: US6967096B2, “Thermostable peptidase” (California Institute of Technology, priority 1998, dated 2005)
Entries after “also recorded” stand apart in the source; their conditions may differ. Read-outs that look alike come from different tables or passages of the source. Peptide text beside a SMILES is read from it. * marks the point of attachment. Cbz = O=C(OCc1ccccc1)*; Bz = O=C(c1ccccc1)*

Columns and labels:
PfuCP [1] = target: T1, PfuCP (Pyrococcus furiosus, UniProt Q8U3L0); format: biochemical
T1 construct: Pure PfuCP fractions (1391 U.mg^1; 11 mg), as determined by SDS-PAGE, were pooled and stored at −80° C; endogenous in cells; host or cells: Pyrococcus furiosus cell paste; enzyme purified in house by column chromatography
T1 sequence (Q8U3L0 1-499): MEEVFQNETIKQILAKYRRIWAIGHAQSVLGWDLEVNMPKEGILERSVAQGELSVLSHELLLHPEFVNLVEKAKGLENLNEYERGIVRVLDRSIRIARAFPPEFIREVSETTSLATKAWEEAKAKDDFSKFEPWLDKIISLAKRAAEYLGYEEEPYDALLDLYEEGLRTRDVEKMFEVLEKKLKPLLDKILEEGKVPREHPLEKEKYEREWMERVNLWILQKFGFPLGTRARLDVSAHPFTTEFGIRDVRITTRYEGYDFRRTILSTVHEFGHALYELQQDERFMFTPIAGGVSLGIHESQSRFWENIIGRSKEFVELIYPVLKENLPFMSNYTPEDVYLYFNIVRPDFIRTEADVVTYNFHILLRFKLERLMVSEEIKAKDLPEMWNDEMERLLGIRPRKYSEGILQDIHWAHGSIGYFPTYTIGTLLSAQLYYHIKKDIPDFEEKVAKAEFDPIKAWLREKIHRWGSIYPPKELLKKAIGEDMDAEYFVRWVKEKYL
Protocol: (§1) Assay of Enzyme Activity: Unless stated otherwise, enzymatic activity was assayed using 4 μl of enzyme sample in a total volume of 100 μl of 0.1 M KMES buffer (pH 6.5), starting with 2 mM ZAR in the presence of 0.4 mM CoCl2. Polypropylene microcentrifuge tubes were used. The enzyme and substrate were mixed quickly at room temperature and then brought to 80° C.; the equilibration time for the reaction mixture to reach 80° C. was considered negligible relative to the time scale of the assay. The reaction mixture was incubated at 80° C. in a water bath (Neslab EX-200 DD) for 10 minutes followed by quenching on ice. Subsequently, 750 μl of cadmium-ninhydrin reagent (21) was added and the samples were incubated for an additional 5 min at 80° C. for color development followed by quenching on ice. The absorbance was read at 500 nm (HP 8452A diode array spectrophotometer) with an unheated assay mixture containing Cd-ninhydrin reagent serving as the blank. Absorbances were compared with an arginine standard curve in order to calculate specific activities. Stock solutions of ZAR and CoCl2 were prepared in 0.1 M KMES buffer (pH 6.5), and when necessary, dilution of enzyme samples was done in 50 mM Tris-Cl buffer (pH 8.0). All pH adjustments were performed at room temperature. The free amine of the liberated arginine reacts with ninhydrin to yield the chromophore, Ruheman's purple (absorbance at 500 nm).

[2] = tested on: carboxypeptidase activity in crude extract; assay: Effect of DTT and EDTA on carboxypeptidase activity in crude extract; format: biochemical, Pyrococcus furiosus; conditions: preliminary studies
PfuCP [3] = target: T1, PfuCP; assay: Re-activation by metal ions: divalent metal ion dependence of PfuCP activity; format: biochemical; conditions: at 80° C.; linear reciprocal plot; read-out: binding constant (Kd) for Co^2+
Protocol: as §1, with “All pH adjustments were performed at room temperature.” left out, “nm). […]” for “nm).”

PfuCP [4] = target: T1, PfuCP; assay: Hydrolysis of synthetic substrates by PfuCP; format: biochemical; conditions: for hydrolysis by PfuCP: initial studies and control experiment; for hydrolysis by PfuCP at longer digestion time: digestion time 30 minutes, not detected under standard conditions
Protocol: as §1
One unit of activity is defined as the amount of enzyme required to generate one μmole of arginine from ZAR in one minute at 80° C. Activity assays for other ZAX amino acid substrates (X=A, D, E, F, G, H, I, K, L, M, N, P, R, S, V, W, Y) were performed under otherwise identical assay conditions; appropriate amino acids were used to prepare standard curves. Spontaneous hydrolysis of the synthetic substrates was not observed at these temperatures. Protein concentrations were quantified by the Bradford assay using bovine serum albumin as the standard.

O[C@H](CS)[C@H](O)CS (racemic) [DTT, dithiothreitol]
reversibility of inhibition (PfuCP [1]): fully reversible | effect on PfuCP activity (PfuCP [1]; 2 mM): not observed | effect on carboxypeptidase activity in crude extract [2]: completely abolished

O=S(=O)(F)Cc1ccccc1 [PMSF, Phenymethylsulfonyl fluoride]
effect on PfuCP activity (PfuCP [1]; 1 mM): no effect | effect on the enzymatic activity of the polypeptide (PfuCP [1]; concentration not given): no effect

[Co+2] [Co^2+]
Kd (PfuCP [3]): 13 ± 3 µM

C[C@H](NC(=O)OCc1ccccc1)C(=O)O [ZA, N-Cbz-Ala]
hydrolysis by PfuCP (PfuCP [4]): no hydrolysis

O=C(O)CNC(=O)c1ccccc1 [hippuric acid, Bz-Gly]
hydrolysis by PfuCP (PfuCP [4]): activity

C[C@H](NC(=O)OCc1ccccc1)C(=O)N[C@@H](CC(N)=O)C(=O)O [ZAN] (Cbz-Ala-Asn-OH)
hydrolysis by PfuCP at longer digestion time (PfuCP [4]): hydrolyzed; also recorded: observed

CC(NC(=O)OCc1ccccc1)C(=O)NC(Cc1cnc[nH]1)C(=O)O (stereo not drawn) [ZAH]
hydrolysis by PfuCP at longer digestion time (PfuCP [4]): hydrolyzed; also recorded: observed

CC(NC(=O)OCc1ccccc1)C(=O)NC(CO)C(=O)O (stereo not drawn) [ZAS]
hydrolysis by PfuCP at longer digestion time (PfuCP [4]): hydrolyzed; also recorded: observed

NC(N)=NCCC[C@H](NC(=O)CNC(=O)c1ccccc1)C(=O)O [hippuryl-arginine, N-Benzoyl-Gly-Arg] (Bz-Gly-Arg-OH)
hydrolysis by PfuCP (PfuCP [4]): active

O=C(O)CN(CCN(CC(=O)O)CC(=O)O)CC(=O)O [EDTA, ethylenediaminetetraacetic acid]
effect on PfuCP activity (PfuCP [1]): not observed | reversibility of inhibition (PfuCP [1]): fully reversible | effect on carboxypeptidase activity in crude extract [2]: completely abolished
